In patent publication US7179807B2, “5-substituted-2-arylpyrazines” (Neurogen Corporation, priority 2002, dated 2007):

target: T1, CRF1 receptor (Homo sapiens, UniProt P34998); assay: standard in vitro CRF receptor binding assay (125I-CRF, IMR-32 cell membranes); conditions: Table I; asterisk = tested in the Example 30 assay, membranes of BrdU-induced IMR-32 cells, 125I-CRF 100 pM; read-out: Ki < 1 μM
T1 construct: To induce CRF1 receptor expression, the cells are grown to approximately 80% confluence; endogenous in cells; host or cells: IMR-32 human neuroblastoma cells, BrdU-induced, as membrane homogenates
T1 sequence (P34998 24-415): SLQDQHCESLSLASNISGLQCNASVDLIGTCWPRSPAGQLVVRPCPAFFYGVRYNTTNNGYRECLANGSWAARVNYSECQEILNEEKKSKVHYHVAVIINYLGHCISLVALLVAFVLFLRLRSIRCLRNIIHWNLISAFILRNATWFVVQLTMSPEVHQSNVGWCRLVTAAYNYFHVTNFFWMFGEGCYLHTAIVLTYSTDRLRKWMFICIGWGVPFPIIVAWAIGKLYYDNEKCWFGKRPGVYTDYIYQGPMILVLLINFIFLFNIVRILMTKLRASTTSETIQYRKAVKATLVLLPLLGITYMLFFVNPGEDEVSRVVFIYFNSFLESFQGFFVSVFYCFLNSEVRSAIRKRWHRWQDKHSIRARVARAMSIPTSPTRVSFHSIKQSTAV
Protocol: As discussed above, the following assay is defined herein as a standard in vitro CRF receptor binding assay. The pharmaceutical utility of compounds of this invention is indicated by the following assay for CRF1 receptor activity.
The CRF receptor binding is performed using a modified version of the assay described by Grigoriadis and De Souza (Methods in Neurosciences, Vol. 5, 1991). IMR-32 human neuroblastoma cells, a cell line that can be induced to express the CRF1 receptor, are cultured in growth medium consisting of EMEM w/Earle's BSS (JRH Biosciences, Cat# 51411) supplemented with 10% Fetal Bovine Serum, 25 mM HEPES (pH 7.2), 1 mM Sodium Pyruvate, and Non-Essential Amino Acids (JRH Biosciences, Cat# 58572). Stock cultures of cells are grown to confluence and subcultured twice per week at split ratios of 1:2 to 1:4 (cells are dislodged during subculturing using No-Zyme, JRH Biosciences, Cat# 59226). To induce CRF1 receptor expression, the cells are grown to approximately 80% confluence and then changed to growth media containing 2.5 μM 5-bromo-2′deoxyuridine (BrdU, Sigma, Cat# B9285). Growth media containing BrdU is replaced every 3–4 days and the cells are harvested via centrifugation (using No-Zyme) after 10 days of BrdU treatment. Harvested cells are stored frozen at −80° C. until needed for the preparation of membrane homogenates.
To prepare receptor-containing membranes cells are homogenized in wash buffer (50 mM Tris HCl, 10 mM MgCl2, 2 mM EGTA, pH 7.4) and centrifuged at 48,000×g for 10 minutes at 4° C. The pellet is re-suspended in wash buffer and the homogenization and centrifugation steps are performed once more.
Membrane pellets (containing CRF receptors) are resuspended and brought to a final concentration of 1.0 mg membrane protein/ml in binding buffer (Tris buffer above with 0.1% BSA and 0.1 mM bacitracin). For the binding assay, 150 microliters of the membrane preparation is added to 96 well microtube plates containing 50 microliters of ^125I-CRF (SA 2200 Ci/mmol, final concentration of 100 pM) and 2 microliters of test compound. Binding is carried out at room temperature for 2 hours. Plates are then harvested using 50 mM Tris buffer pH 7.4, on a BRANDEL 96 well cell harvester and filters (soaked in 1% PEI for 1.5 hours) are counted for gamma emissions on a Wallac 1205 BETAPLATE liquid scintillation counter. Non-specific binding is defined by 2 micromolar cold CRF. Ki values are calculated with the non-linear curve fitting program RS/1 (BBN Software Products Corp., Cambridge, Mass.).

Ki, < 1000 nM:
[5-Ethyl-6-(2-ethyl-6-isopropoxy-2-pyridin-3-yl)-3-(1-ethyl-propoxy)-pyrazin-2-yl]-methyl-amine [Compound 6]
CCC(CC)Nc1nc(C)c(-c2nc(OC)c(NC(CC)CC)nc2C)nc1OC [Compound 2, N-5,N-5′-Bis-(1-ethyl-propyl)-6,6′-dimethoxy-3,3′-dimethyl-[2,2′]bipyrazinyl-5,5′-diamine]
CCc1nc(OC(CC)CC)c(NC)nc1-c1ccc(C(C)C)nc1O [Compound 9, [5-Ethyl-6-(2-hydroxy-6-isopropyl-2-pyridin-3-yl)-3-(1-ethyl-propoxy)-pyrazin-2-yl]-methyl-amine]
CCc1nc(OC(CC)CC)c(NC)nc1-c1ccc(N(C)C)nc1C [Compound 10, [5-Ethyl-6-(2-methyl-6-dimethylamino-2-pyridin-3-yl)-3-(1-ethyl-propoxy)-pyrazin-2-yl]-methyl-amine]
CCc1cc(-c2nc(NC)c(OC(CC)CC)nc2CC)c(C)nc1N(C)C [Compound 16, [6-(6-Dimethylamino-5-ethyl-2-methyl-pyridin-3-yl)-5-ethyl-3-(1-ethyl-propoxy)-pyrazin-2-yl]-methyl-amine]
CCc1nc(OC(CC)CC)c(NC)nc1-c1ccc(C(C)C)nc1C [Compound 8, [5-Ethyl-6-(2-methyl-6-isopropyl-2-pyridin-3-yl)-3-(1-ethyl-propoxy)-pyrazin-2-yl]-methyl-amine]
CCc1nc(OC(CC)CC)c(NC)nc1-c1c(C)noc1C [Compound 5, [6-(3,5-Dimethyl-isoxazol-4-yl)-5-ethyl-3-(1-ethyl-propoxy)-pyrazin-2-yl]-methyl-amine]
CCC(CC)Oc1nc(Br)c(-c2cc(Br)c(NC(C)C)nc2C)nc1NC [Compound 15, [3-(1-Ethyl-propoxy)-6-(6-isopropyl-amino-2-methyl-5-bromo-pyridin-3-yl)-5-bromo-pyrazin-2-yl]-methyl-amine]
CCc1cc(-c2nc(NC)c(OC(CC)CC)nc2CC)c(C)nc1OC [Compound 4, [5-Ethyl-6-(5-ethyl-6-methoxy-2-methyl-pyridin-3-yl)-3-(1-ethyl-propoxy)-pyrazin-2-yl]-methyl-amine]
CCc1nc(OC(CC)CC)c(NC)nc1-c1ccc(C(C)C)nc1N(CC)CC [Compound 14, [6-(2-Diethylamino-6-isopropyl-pyridin-3-yl)-5-ethyl-3-(1-ethyl-propoxy)-pyrazin-2-yl]-methyl-amine]
CCc1cc(-c2nc(NC)c(OC(CC)CC)nc2C)c(C)nc1OC [Compound 3, [5-Methyl-6-(5-ethyl-6-methoxy-2-methyl-pyridin-3-yl)-3-(1-ethyl-propoxy)-pyrazin-2-yl]-methyl-amine]
CCC(CC)Oc1nc(C)c(-c2cc(C)c(NC(C)C)nc2C)nc1NC [Compound 17, [3-(1-Ethyl-propoxy)-6-(6-isopropyl-amino-2,5-dimethyl-pyridin-3-yl)-5-methyl-pyrazin-2-yl]-methyl-amine]
CCc1cc(-c2nc(OC)c(NC(CC)CC)nc2C)c(C)nc1OC [Compound 1, [5-(5-Ethyl-6-methoxy-2-methyl-pyridin-3-yl)-3-methoxy-6-methyl-pyrazin-2-yl]-(1-ethyl-propyl)-amine]
CCc1nc(OC(CC)CC)c(NC)nc1-c1ccc(C(C)C)nc1N(C)C [Compound 11, [5-Ethyl-6-(2-dimethylamino-6-isopropyl-2-pyridin-3-yl)-3-(1-ethyl-propoxy)-pyrazin-2-yl]-methyl-amine]
CCc1nc(OC(CC)CC)c(NC)nc1-c1ccc(C(C)C)nc1N1CCC1 [Compound 13, [6-(2-Azetidin-1-yl-6-isopropyl-pyridin-3-yl)-5-ethyl-3-(1-ethyl-propoxy)-pyrazin-2-yl]-methyl-amine]
[5-Ethyl-6-(2-ethoxy-6-isopropoxy-2-pyridin-3-yl)-3-(1-ethyl-propoxy)-pyrazin-2-yl]-methyl-amine [Compound 7]
